Measured values: US20190375842A1, “CHECK POINT INHIBITION IN ORGAN FIBROSIS” (VANDERBILT UNIVERSITY, priority 2018, published 2019)

System: human lung fibroblasts/fibrocytes (HLF) co-cultured with sarcoidosis CD4+ T cells
Assay: CD4+ T cell and human lung fibroblast (HLF) co-culture, collagen I production by flow cytometry
Assay type: cell-based
Conditions: after exposure to STATTIC
Description: The detection of increased collagen-1 production following co-culture of sarcoidosis PD-1+CD4+ cells supported an investigation of the effects of PD-1 pathway blockade on HLF collagen I production. Purified sarcoidosis CD4+ T cells at a final concentration of 2×10^6/mL were cultured overnight in the presence of α-PD-1, α-PD-L1 and α-PD-L2. HLFs were added the following day at a 1:10 ratio (HLF:T cell). […] Similar results were also observed for collagen I producing fibrocytes (CD45^+) that were cultured in the presence of sarcoidosis CD4+ T cells. There was a significant decline in collagen I production of 22% following PD-1 pathway blockade (p=0.0002) (FIG. 7E). Once again, these differences were only observed when HLF were cultured with sorted CD4+ T cells from sarcoidosis patients that had high baseline PD-1 expression on their CD4+ T cells (p=0.0002) (FIG. 7F) but not from patients with low PD-1 (p=0.10) (FIG. 7G).
LN2 frozen PBMC were thawed and readied for CD4+ T cell purification as aforementioned. 4-5×10^5 CD4+ T cells were plated on a 96-well plate at a final concentration of 2×10^6/mL in RPMI 1640-supplemented medium and then allowed to rest at 37° C. in 5% atmospheric CO2 for 2 hours prior to PD-1 pathway blockade or STATS inhibition using STATTIC. […]

## O=[N+]([O-])c1ccc2c(c1)S(=O)(=O)C=C2 [STATTIC]
Sarcoidosis PD-1+CD4+ T cells co-cultured with fibrocytes
  collagen 1 production by fibrocytes: significant reduction
Sarcoidosis PD-1+CD4+ T cells co-cultured with human lung fibroblasts
  collagen 1 production by fibroblasts: significant reduction
